Source: ChEMBL document CHEMBL5653631, “A Potent and Selective ULK1 Inhibitor Suppresses Autophagy and Sensitizes Cancer Cells to Nutrient Stress” (iScience, 2018)

Legend:
[1] = biological target: T1, Ephrin type-A receptor 1 (Homo sapiens) (UniProt P21709); assay: Inhibition of human recombinant EphA1 at 500 nM in presence of ATP by radiometric assay relative to control
T1 sequence (whole entry): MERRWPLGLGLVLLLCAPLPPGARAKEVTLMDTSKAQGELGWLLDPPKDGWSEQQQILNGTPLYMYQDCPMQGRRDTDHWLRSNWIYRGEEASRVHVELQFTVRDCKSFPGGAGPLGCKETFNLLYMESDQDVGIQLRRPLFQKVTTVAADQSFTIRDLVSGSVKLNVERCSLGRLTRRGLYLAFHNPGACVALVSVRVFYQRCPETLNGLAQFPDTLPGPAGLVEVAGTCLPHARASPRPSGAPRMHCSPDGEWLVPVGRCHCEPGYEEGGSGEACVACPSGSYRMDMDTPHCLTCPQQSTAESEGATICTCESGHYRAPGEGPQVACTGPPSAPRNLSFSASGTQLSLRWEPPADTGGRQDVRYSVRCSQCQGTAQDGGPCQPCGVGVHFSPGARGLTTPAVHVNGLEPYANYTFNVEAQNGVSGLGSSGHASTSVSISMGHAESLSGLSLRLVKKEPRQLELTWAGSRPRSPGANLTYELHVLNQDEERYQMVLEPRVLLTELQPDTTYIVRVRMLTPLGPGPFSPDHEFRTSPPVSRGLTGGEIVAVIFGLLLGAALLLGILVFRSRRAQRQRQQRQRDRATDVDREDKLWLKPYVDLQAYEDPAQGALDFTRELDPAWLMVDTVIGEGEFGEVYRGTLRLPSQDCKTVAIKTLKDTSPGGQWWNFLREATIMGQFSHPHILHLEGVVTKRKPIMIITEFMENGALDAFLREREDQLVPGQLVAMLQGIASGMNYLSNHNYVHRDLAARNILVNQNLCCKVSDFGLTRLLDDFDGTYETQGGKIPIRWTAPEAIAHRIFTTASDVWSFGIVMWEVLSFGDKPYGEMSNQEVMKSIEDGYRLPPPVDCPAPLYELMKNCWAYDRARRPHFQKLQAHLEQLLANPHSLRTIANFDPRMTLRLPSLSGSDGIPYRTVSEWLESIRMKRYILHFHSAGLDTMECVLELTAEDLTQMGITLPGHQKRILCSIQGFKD

[2] = biological target: Protein kinase C beta type (Homo sapiens) (UniProt P05771); assay: Inhibition of human recombinant PKCb at 500 nM in presence of ATP by radiometric assay relative to control
[3] = biological target: T2, Serine/threonine-protein kinase Sgk3 (Homo sapiens) (UniProt Q96BR1); assay: Inhibition of human recombinant SGK3 at 500 nM related to control ULK1
T2 sequence (whole entry): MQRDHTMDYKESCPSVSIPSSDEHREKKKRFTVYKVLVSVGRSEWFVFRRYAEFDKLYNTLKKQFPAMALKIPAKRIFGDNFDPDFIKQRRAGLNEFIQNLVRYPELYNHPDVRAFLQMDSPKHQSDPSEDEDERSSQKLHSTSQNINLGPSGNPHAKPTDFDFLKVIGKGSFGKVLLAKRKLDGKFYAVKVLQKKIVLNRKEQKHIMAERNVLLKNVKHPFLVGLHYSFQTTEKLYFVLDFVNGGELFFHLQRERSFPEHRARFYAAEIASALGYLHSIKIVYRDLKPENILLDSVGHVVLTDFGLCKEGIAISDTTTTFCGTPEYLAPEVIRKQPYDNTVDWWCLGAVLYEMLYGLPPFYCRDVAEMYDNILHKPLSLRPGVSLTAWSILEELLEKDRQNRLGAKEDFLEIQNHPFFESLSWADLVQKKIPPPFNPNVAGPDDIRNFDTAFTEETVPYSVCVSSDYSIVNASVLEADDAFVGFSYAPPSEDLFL

[4] = biological target: Serine/threonine-protein kinase mTOR (Homo sapiens) (UniProt P42345); assay: Inhibition of human recombinant FRAP at 500 nM related to control ULK1
[5] = biological target: Protein kinase C eta type (Homo sapiens) (UniProt P24723); assay: Inhibition of human recombinant PKCH at 15 nM in presence of ATP by radiometric assay relative to control
[6] = biological target: T3, Tyrosine-protein kinase TXK (Homo sapiens) (UniProt P42681); assay: Inhibition of human recombinant TXK at 40 nM related to control ULK1
T3 sequence (whole entry): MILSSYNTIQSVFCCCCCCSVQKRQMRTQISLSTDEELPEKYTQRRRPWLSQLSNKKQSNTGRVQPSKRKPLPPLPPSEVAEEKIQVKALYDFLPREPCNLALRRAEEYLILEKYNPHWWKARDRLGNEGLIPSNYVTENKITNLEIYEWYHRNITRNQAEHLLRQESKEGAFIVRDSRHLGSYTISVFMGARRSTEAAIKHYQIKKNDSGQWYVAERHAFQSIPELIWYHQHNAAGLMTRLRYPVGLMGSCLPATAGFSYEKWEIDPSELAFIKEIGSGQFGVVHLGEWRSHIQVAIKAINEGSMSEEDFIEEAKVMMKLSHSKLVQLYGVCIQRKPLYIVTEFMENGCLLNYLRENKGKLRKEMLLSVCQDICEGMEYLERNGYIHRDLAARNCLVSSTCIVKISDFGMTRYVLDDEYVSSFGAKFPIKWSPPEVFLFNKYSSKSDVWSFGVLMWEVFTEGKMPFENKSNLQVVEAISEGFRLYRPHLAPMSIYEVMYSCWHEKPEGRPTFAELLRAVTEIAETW

[7] = biological target: Casein kinase II subunit alpha' (Homo sapiens) (UniProt P19784); assay: Inhibition of human recombinant CK2a2 at 40 nM related to control ULK1
[8] = biological target: Serine/threonine-protein kinase PLK3 (Homo sapiens) (UniProt Q9H4B4); assay: Inhibition of human recombinant PLK3 at 40 nM related to control ULK1
Sequence of Serine/threonine-protein kinase PLK3 (Homo sapiens) (Q9H4B4 whole entry, looked up): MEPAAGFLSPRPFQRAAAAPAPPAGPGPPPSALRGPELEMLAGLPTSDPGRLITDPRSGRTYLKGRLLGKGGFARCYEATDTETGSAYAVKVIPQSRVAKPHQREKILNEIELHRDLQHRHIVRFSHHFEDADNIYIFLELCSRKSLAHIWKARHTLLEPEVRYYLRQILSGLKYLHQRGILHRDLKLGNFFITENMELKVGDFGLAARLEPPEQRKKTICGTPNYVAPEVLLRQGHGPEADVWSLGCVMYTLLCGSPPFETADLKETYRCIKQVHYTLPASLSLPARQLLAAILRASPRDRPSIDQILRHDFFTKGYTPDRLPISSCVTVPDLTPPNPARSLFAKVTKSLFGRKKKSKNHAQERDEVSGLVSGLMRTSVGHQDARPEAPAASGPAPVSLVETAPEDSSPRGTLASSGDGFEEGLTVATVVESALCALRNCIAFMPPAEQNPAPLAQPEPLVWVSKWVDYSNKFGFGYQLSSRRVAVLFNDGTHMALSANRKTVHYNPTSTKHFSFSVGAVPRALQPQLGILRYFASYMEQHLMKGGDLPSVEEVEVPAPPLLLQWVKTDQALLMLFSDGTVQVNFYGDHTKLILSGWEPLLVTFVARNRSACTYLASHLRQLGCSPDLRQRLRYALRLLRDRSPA

Sequence of Casein kinase II subunit alpha' (Homo sapiens) (P19784 whole entry, looked up): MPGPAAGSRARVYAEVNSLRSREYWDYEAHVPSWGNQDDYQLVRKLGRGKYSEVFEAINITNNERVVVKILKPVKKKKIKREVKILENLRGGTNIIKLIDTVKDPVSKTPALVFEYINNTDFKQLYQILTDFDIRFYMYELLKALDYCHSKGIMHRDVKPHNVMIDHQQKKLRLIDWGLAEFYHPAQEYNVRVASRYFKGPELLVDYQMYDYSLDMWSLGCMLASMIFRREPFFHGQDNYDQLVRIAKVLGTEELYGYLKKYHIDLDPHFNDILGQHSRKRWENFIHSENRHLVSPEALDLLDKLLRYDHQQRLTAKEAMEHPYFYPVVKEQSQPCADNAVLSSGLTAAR
Sequence of Protein kinase C eta type (Homo sapiens) (P24723 whole entry): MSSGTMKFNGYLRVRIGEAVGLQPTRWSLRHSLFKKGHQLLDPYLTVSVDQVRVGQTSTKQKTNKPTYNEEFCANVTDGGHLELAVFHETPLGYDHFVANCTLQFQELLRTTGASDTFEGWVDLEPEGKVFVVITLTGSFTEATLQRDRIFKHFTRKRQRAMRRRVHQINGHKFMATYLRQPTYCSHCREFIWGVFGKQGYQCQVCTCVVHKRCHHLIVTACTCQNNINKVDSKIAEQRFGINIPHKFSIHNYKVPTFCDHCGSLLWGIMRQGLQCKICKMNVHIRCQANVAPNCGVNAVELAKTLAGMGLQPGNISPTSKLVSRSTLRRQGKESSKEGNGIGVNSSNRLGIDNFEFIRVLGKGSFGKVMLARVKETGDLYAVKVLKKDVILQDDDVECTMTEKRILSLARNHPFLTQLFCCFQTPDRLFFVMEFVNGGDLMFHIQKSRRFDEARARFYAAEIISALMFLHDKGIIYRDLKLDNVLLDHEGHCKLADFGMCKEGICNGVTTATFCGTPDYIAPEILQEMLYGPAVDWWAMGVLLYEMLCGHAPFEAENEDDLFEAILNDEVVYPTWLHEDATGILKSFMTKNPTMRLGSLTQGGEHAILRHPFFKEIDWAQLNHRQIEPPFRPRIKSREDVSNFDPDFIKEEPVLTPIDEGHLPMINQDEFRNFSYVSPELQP
Sequence of Protein kinase C beta type (Homo sapiens) (P05771 2-671 limits assumed): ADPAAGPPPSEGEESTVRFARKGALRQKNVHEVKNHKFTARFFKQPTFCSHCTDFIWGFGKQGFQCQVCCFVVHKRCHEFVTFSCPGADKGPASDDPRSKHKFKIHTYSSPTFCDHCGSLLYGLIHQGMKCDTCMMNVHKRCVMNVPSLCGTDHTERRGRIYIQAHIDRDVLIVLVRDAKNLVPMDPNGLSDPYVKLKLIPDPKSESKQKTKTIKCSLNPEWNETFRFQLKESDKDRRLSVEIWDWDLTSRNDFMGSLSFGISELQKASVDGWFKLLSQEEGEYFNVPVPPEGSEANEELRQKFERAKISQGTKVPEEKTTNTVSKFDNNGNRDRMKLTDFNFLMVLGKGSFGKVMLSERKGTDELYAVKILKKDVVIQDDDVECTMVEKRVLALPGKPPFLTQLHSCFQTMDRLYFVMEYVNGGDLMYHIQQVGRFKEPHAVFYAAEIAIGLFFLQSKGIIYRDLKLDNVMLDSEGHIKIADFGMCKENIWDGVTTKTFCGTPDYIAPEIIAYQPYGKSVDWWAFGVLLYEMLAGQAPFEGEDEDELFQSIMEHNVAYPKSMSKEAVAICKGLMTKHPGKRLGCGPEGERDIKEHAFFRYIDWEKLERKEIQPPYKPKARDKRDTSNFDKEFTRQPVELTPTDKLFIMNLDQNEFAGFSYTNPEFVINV

CNC(=O)c1ccccc1Oc1nc(Nc2cc(OC)c(OC)c(OC)c2)ncc1Br
inhibition [1]: 13%
inhibition [2]: 7%
fold change (FC) [3]: 0.01
fold change (FC) [4]: 0

CC(C)[C@H](NC(=O)c1cc(-c2cnn3cc(-c4ccc(OCCN5CCCCC5)cc4)cnc23)cs1)C(F)(F)F
inhibition [5]: 0%

O=C(N[C@@H](C1CC1)C(F)(F)F)c1cc(-c2cnn3cc(-c4ccc(F)cc4)cnc23)cs1
fold change (FC) [6]: 0.18
fold change (FC) [7]: 0.11
fold change (FC) [8]: 0
